Consider three molecules from patent publication US20110143992A1, “Methods and Compositions Related to GHS-R Antagonists” (priority 2006, published 2011).

The conditions of series [1]: cited from earlier work.
The target of series [2] is T1, CXCR4 (Homo sapiens, UniProt P61073). Put plainly: SDF-1 induced intracellular calcium mobilization (Fura-2AM) in primary human T cells. The class given is cell-based. Details: endogenous in cells; host or cells: primary human T cells purified from donor PBMCs. Here is the method:
Intracellular calcium mobilization. Measurement of intracellular calcium release in response to ghrelin and SDF-1 was performed as described previously (Dixit et al. J. Clin. Invest. 114, 57-66 (2004)). Cells were incubated in PBS containing […] Fura-2 acetoxymethyl ester (Molecular Probes) for 30 minutes at room temperature. The cells were subsequently washed and then resuspended at 1×10^6/ml in PBS. A total of 2 ml of the cell suspension was placed in a continuously stirring cuvette at room temperature in an LS50B spectrophotometer (Perkin-Elmer, Wellesley, Mass., USA). Labeled T cells were treated with SDF-1 (100 ng/ml) and along with DLG (Sigma-Aldrich) at various concentrations. Fluorescence was monitored at λex1=340 nm, λex2=380 nm, and λcm=510 nm. The data are presented as the relative ratio of fluorescence excited at 340 and 380 nm.
(In general: Calcium assays in cells follow changes in intracellular calcium, usually with a dye or a luminescent sensor.)

The subject of another series is SW1008 astrocytoma cells. Put plainly: SDF-1 induced ERK phosphorylation, Western blot, SW1008 cells. Type of series: cell-based, human. Conditions: DLG pretreatment 30 min. Here is the method:
(§1) Western blot analysis. Control and treated cells were lysed in RIPA buffer supplemented with protease and phosphatase inhibitor cocktail (Sigma-Aldrich, St. Louis, Mo.) and protein concentrations of cell lysates were determined by Bradford assay. Protein lysates (30 μg) were diluted with sample buffer and separated on 4-20% Tris HCl SDS-polyacrylamide gels (Biorad, Hercules, Calif.) and electrophoretically transferred to nitrocellulose membranes (Schleicher & Schuell). The blots were then incubated with rabbit anti-phospho-P42 and pERK (Cell Signaling, Beverly, Mass.). Immune complexes were visualized by incubation with either an anti-rabbit or an anti-mouse HRP-conjugated secondary antibody (Amersham, Piscataway, N.J.). The immunoreactive band was visualized by enhanced chemiluminescence (Perkin-Elmer).
In general terms: A western blot detects proteins with antibodies after separation by electrophoresis.

In another series the test system is Primary human T cells. Put plainly: Transwell chemotaxis assay, SDF-1 induced migration of primary human T cells. The class given is cell-based. As to conditions: SDF-1 100 ng/ml, 2 h. Here is the method: (§2) Chemotaxis Assay. Fluorescence-based Transwell chemotaxis assays were performed to assess cell migration. Primary human T cells, CEMR5 and HH cells were labeled with 10 μg/ml Hoechst 33342 (Molecular Probes) in cRPMI for 30 min at 37° C. The cells were then resuspended in RPMI with 1% FBS to a concentration of 1×10^7/ml and 100 ul of Hoechst labeled cells (10^6 cells) were added into the top chamber of the transwells. Cells were treated with DLG in the upper chamber and RPMI (0.6 ml) containing 1% FBS was added to the bottom wells of the 24-well plate with 100 ng/ml of SDF-1α. Transwell chambers with 5 μm pore filters (Corning CoStar, Acton, Mass.) were then placed into the wells. Cells (1×10^6 in 100 μl) were then added to the chambers. After 2 h, the migrated cells in the bottom wells were transferred to triplicate wells of a 96-well plate in 150 μl volumes. Hoechst fluorescence was measured on a Fluoroskan Ascent FL fluorescence plate reader (Thermo Labsystems, Franklin, Mass.) at λex=355 nm, and λem=460 nm. Results are expressed as migration index calculated by subtracting the fluorescence intensity of media alone and comparing the values to the fluorescence intensity (relative number) of cells migrated into the bottom chamber in media alone, which is normalized to a value of 1. Fluorescence values were within the linear range of a standard dilution curve.

A further series relates to HIV1 (CXCR4, S1 strain). The series can be described thus: HIV-1 infectivity of CEM-GFP indicator cells (GFP fluorescence). The class given is cell-based. As to conditions: 1 ug/ml pretreatment 30 min, 90 min viral incubation. Here is the method: Neomycin-resistant indicator CEM-GFP cells were used to monitor the infections with HIV1 (CXCR4, S1 strain). Viral entry into CEM cells via CXCR4 results in generation of green fluorescent protein signal. CEM cells (1 million/ml) were pretreated with DLG (1 ug/ml) and SDF-1 (1 ug/ml) for 30 min followed by 90 min viral incubation.

The target in series [3] is T2, CCR5 (Homo sapiens, UniProt P51681). Put plainly: MIP-1β induced calcium release in CEM-R5 cells (Fura-2AM). Type of series: cell-based. Set-up: ATCC; host or cells: CEM-R5 cells. As to conditions: CEMR5 cells, MIP-1β 100 ng/ml.
The test system of a further series is U118 astrocytoma cells. The series can be described thus: SDF-1 induced ERK phosphorylation, Western blot, U118 cells. As to conditions: DLG pretreatment 30 min. Type of series: cell-based, human. Here is the method:
as §1

The subject of series [4] is CEMR5 human T cell lymphoma cell. The series can be described thus: Transwell chemotaxis assay, SDF-1 induced migration of CEMR5 cells. The class given is cell-based. As to conditions: SDF-1 100 ng/ml. Here is the method: as §2
A further series addresses T3, CCR7 (Homo sapiens, UniProt P32248).
T3 construct: MIP-3β induced calcium release (A) and sphingosine 1 phosphate (B) is not affected by DLG treatment in human T cells; endogenous in cells; host or cells: human T cells
T3 sequence (P32248 25-378): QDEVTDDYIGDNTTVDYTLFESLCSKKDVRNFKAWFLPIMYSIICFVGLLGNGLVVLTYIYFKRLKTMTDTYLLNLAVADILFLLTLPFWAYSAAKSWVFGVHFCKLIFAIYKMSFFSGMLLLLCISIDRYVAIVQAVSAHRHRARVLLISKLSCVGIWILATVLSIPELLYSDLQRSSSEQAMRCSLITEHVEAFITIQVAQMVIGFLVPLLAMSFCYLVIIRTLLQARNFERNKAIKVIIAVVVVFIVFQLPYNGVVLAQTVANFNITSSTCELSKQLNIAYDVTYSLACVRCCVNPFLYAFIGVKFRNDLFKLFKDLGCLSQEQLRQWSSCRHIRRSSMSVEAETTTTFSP
The series can be described thus: MIP-3β induced calcium release in human T cells. Type of series: cell-based.

Another series relates to EDG receptor. Put plainly: Sphingosine 1 phosphate induced calcium release in human T cells. Type of series: cell-based.
For series [5] the following is noted: obese mice, cited from earlier work.
A further series concerns primary brain tumors. As to conditions: via ERK dependent pathways; cited from earlier work.
The next series has as its system glioma cell. Conditions: cited from earlier work.
For series [6] the following is noted: in vivo; cited from earlier work.
The subject of a further series is HIV. Conditions: cited from earlier work.
Series [7] concerns breast and pancreatic carcinoma. As to conditions: cited from earlier work.
In series [8] the target is T2, CCR5. The series can be described thus: flow cytometry, whole cell ligand binding on T-SUP1 cells; competitor biotinylated MIP-1β + avidin-FITC; DLG 10^-2 M for 15 minutes by the legend of FIG. 5. Background: Flow cytometry measures light scatter and fluorescence of single cells or particles in a stream.
The target in series [9] is T1, CXCR4. Put plainly: flow cytometry, whole cell ligand binding on T-SUP1 cells; competitor biotinylated SDF-1 + avidin-FITC; DLG 10^-2 M for 15 minutes by the legend of FIG. 5.

[ ]: non-standard residue; d: D form.

T1 sequence (P61073 whole entry): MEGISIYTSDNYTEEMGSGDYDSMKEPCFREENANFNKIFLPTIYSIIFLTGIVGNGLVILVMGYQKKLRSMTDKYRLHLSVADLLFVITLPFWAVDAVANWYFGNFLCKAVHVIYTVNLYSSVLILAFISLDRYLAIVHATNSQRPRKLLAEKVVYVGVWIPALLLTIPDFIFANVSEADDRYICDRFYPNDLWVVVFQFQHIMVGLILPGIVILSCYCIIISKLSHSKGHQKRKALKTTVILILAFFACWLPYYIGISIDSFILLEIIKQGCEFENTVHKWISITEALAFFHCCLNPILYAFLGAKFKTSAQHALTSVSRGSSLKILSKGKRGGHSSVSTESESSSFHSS
T2 sequence (P51681 whole entry): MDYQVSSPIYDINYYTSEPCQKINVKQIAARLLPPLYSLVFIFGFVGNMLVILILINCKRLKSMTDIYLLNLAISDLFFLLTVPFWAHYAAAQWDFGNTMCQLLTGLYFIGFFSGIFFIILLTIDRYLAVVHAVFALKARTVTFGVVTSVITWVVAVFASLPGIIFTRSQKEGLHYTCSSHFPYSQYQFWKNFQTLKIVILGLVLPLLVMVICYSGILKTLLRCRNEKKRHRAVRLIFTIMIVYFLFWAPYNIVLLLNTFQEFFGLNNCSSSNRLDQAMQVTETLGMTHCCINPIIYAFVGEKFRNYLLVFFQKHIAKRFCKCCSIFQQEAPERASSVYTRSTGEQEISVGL

For the molecule “H-His-D-Trp-D-Lys-Trp-D-Phe-Lys-NH2 (H-H[dW][dK]W[dF]K-NH2; SMILES NCCCC[C@H](NC(=O)[C@@H](Cc1ccccc1)NC(=O)[C@H](Cc1c[nH]c2ccccc12)NC(=O)[C@@H](CCCCN)NC(=O)[C@@H](Cc1c[nH]c2ccccc12)NC(=O)[C@@H](N)Cc1c[nH]cn1)C(N)=O) [DLG, GHS-R antagonist peptide, obtained from Sigma-Aldrich]”, in series [1] (fed state when circulating ghrelin levels are low), the food intake result is “does not affect food intake in the fed state”. In series [1] (in vivo), the adverse side effects entry was “without any adverse side effects”. Further, the “inhibition of SDF-1-induced calcium flux” value in the series with CXCR4 [2] (primary human T cells, SDF-1 100 ng/ml, DLG at various concentrations) was “markedly inhibited in a dose dependent fashion”. Further, in the series with CXCR4 [2] (unstimulated primary human T cells), the “calcium flux by the substance alone” value was “did not flux calcium by itself”. In the series with SW1008 astrocytoma cells, the “effect on SDF-1 induced ERK/P42 phosphorylation” value is listed as “abrogated the SDF-1 induced signaling”. For the same molecule, the “inhibition of SDF-1 induced T cell migration” value in the series with Primary human T cells is listed as “marked dose dependent inhibition”. Further, the “HIV infectivity (GFP fluorescence intensity) compared to untreated cells” value in the series on HIV1 (CXCR4, S1 strain) is “substantial reduction in HIV infectivity”. For the same molecule, the “inhibition of calcium release post MIP-1β-CCR5 interaction” value with CCR5 [3] is “dose dependent inhibition of calcium release”. Further, in the series on U118 astrocytoma cells, the “effect on SDF-1 induced ERK/P42 phosphorylation” value is listed as “abrogated the SDF-1 induced signaling”. In addition, the “inhibition of SDF-1 induced migration” value in [4] is “inhibited the migration”. Further, the “effect on MIP-3β mediated calcium flux” value with CCR7 is on record as “did not affect”. Also, the “effect on sphingosine 1 phosphate mediated calcium flux” value in the series with EDG receptor is listed as “did not affect”. In addition, in [5] (repeated administration), the body weight entry is “reduce body weight in obese mice”; the “glycaemic control and insulin resistance” value is “improve their glycaemic control and insulin resistance”. Moreover, in [5], the muscle mass entry is “without affecting the muscle mass” and the “size of abdominal fat pads” value is given as “reduced the size of abdominal fat pads”.
With `c1cc(CN2CCCNCCNCCCNCC2)ccc1CN1CCCNCCNCCCNCC1` [AMD3100], in the series on primary brain tumors, the “intracranial growth of primary brain tumors” value is listed as “effectively inhibit intracranial growth of primary brain tumors”. Also, the glioma cell invasion entry in the series with glioma cell is listed as “blocks glioma cell invasion”. In series [6], the “allergy and collagen induced arthritis” value is “decreases allergy and collagen induced arthritis”. In addition, in the series on HIV, the “CXCR4 mediated HIV viral entry” value is given as “successfully utilized to block CXCR4 mediated HIV viral entry”. The “metastasis of breast and pancreatic carcinoma” value in series [7] is listed as “blocks”.

B1: D-[Lys3]GHRP-6 (H-His-D-Trp-D-Lys-Trp-D-Phe-Lys-NH2) (peptide)
peptide: H-H[dW][dK]W[dF]K-NH2
SMILES: NCCCC[C@H](NC(=O)[C@@H](Cc1ccccc1)NC(=O)[C@H](Cc1c[nH]c2ccccc12)NC(=O)[C@@H](CCCCN)NC(=O)[C@@H](Cc1c[nH]c2ccccc12)NC(=O)[C@@H](N)Cc1c[nH]cn1)C(N)=O
Take B1: the percent reduction of maximal binding with CCR5 [8] and with CXCR4 [9] was 50 to 60% in each case.
